pIC50: −log10 of the molar value. Counter-ions that a name gives are not always drawn.

One assay concerns the target ATM (Homo sapiens (Human), UniProt Q13315). The experiment in a line: ATM in Cell Western Assay (pKAP1 in etoposide-treated MCF-7 cells). It counts as cell-based. The method, boiled down:
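Cells received compounds in a 10-dose, 3-fold series from a 1 μM final top concentration, then 100 μM etoposide, for 1 hr at 37° C. They were then fixed with paraformaldehyde and permeabilized with 0.1% Triton X-100. After immunostaining, plates were scanned on an infrared imager.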

In another assay the target is DNA-PK (Homo sapiens (Human), UniProt P78527). The experiment in a line: DNA-PK Enzyme-Linked Immunosorbent Assay (phosphorylation of GST-p53 (1-101) peptide). It counts as biochemical. To be noted: ELISA. The method, boiled down: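 ELISA with plate-bound GST-p53 (1-101) phosphorylated by DNA-PK (0.1 μg/mL final) with 20 μM ATP for 1 h at 25 °C. Compounds tested over 10 3-fold doses from 100 nM top final. Phospho-p53 Ser15 detected by antibody, HRP and TMB, absorbance at 450 nm.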

Where [1] appears, read: MCF-7 cells, etoposide 100 μM, 1 hr, pKAP1 readout.
[2] abbreviates: pKAP1 in etoposide-treated MCF-7 cells.

Sequence of ATM (Q13315 whole entry): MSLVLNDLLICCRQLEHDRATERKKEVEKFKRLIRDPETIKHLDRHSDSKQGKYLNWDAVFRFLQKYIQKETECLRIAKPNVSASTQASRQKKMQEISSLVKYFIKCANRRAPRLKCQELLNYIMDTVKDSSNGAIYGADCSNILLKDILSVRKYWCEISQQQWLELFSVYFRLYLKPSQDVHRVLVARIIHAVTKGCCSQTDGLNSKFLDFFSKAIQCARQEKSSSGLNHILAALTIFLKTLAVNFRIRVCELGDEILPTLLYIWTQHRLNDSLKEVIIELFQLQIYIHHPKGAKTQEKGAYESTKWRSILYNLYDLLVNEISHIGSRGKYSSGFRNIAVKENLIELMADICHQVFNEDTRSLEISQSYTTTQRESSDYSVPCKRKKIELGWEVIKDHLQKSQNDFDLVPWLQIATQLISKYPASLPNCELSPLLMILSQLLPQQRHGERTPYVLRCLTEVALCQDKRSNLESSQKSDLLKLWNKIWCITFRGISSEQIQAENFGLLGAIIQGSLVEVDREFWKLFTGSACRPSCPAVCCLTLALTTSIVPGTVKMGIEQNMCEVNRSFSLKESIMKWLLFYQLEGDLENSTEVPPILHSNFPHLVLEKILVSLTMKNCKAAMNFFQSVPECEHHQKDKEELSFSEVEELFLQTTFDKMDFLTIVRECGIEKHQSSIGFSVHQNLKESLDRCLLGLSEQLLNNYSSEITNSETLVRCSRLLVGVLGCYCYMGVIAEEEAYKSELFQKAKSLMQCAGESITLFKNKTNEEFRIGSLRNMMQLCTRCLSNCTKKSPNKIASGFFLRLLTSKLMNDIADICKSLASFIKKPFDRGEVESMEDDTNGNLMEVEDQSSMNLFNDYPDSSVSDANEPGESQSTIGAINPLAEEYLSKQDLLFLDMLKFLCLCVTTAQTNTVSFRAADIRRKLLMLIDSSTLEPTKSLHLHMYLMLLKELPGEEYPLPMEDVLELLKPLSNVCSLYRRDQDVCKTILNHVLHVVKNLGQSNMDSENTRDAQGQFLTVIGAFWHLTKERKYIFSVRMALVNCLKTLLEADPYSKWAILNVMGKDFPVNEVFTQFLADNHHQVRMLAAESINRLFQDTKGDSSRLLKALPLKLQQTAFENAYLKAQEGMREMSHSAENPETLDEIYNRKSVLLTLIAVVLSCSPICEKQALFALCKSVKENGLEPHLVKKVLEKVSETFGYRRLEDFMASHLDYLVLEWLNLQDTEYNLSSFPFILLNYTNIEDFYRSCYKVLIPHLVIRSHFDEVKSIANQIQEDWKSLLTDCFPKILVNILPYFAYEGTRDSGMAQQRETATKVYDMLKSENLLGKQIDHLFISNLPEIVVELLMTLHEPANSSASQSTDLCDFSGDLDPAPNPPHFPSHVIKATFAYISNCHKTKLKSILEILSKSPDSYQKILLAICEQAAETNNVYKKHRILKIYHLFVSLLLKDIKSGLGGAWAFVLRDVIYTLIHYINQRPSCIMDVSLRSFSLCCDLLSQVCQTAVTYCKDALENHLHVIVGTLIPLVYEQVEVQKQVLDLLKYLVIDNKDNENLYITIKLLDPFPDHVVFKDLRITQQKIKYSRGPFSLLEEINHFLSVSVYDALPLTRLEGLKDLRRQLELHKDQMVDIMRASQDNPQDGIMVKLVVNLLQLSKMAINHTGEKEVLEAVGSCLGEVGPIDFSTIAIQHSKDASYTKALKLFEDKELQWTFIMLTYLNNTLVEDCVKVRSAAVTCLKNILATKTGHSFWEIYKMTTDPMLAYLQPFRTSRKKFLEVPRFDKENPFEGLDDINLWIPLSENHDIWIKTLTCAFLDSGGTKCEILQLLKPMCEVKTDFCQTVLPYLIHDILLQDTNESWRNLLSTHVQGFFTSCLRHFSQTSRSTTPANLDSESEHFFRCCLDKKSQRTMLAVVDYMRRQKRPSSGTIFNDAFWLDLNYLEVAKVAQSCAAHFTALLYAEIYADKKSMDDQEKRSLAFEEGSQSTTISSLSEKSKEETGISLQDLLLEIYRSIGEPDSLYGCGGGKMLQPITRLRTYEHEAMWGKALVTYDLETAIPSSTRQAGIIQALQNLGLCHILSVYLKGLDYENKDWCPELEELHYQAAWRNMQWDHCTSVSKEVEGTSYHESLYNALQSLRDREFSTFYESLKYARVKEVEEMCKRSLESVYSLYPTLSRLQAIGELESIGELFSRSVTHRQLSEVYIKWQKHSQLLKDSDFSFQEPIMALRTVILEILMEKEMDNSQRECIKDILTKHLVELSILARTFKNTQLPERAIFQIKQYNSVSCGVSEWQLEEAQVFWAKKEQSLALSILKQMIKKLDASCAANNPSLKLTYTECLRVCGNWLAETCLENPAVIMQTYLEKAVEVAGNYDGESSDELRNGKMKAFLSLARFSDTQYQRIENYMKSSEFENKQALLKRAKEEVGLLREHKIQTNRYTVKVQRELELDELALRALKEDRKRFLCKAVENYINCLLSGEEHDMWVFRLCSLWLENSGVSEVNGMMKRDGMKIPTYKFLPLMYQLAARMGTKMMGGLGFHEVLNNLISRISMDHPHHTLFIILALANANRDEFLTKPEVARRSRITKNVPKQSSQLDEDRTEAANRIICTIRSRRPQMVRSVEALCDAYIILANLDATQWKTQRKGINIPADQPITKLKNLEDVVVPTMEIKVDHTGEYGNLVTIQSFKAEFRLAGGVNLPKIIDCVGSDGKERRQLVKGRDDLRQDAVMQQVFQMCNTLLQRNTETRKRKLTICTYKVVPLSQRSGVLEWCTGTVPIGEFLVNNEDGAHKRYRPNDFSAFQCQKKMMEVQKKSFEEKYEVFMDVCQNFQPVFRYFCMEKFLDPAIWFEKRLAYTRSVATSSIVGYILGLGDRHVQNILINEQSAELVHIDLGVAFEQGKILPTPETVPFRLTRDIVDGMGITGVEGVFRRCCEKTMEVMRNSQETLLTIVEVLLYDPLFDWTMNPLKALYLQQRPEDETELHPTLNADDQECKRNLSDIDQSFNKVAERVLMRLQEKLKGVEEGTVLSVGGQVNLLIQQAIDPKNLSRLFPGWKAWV

As usually defined, the pIC50 is the negative decadic logarithm of the IC50, by convention in mol/L. Take `CN(C)CCCOc1ncc(-c2ccc3ncc4c(c3c2)C2(CC2)C(=O)N4C)cc1NS(=O)(=O)c1ccc(OC(F)(F)F)cc1` [Example 121, N-(2-(3-(Dimethylamino)propoxy)-5-(3′-methyl-2′-oxo-2′,3′-dihydrospiro[cyclopropane-1,1′-pyrrolo[2,3-c]quinolin]-8′-yl)pyridin-3-yl)-4-(trifluoromethoxy)benzenesulfonamide]: the pIC50 is 7.00 to 9.00 against ATM (setting [1]) and greater than 9.30 on DNA-PK (ATP 20 μM).
For `CN(C)CCCOc1ncc(-c2ccc3ncc4c(c3c2)C2(CCC2)C(=O)N4C)cc1NS(=O)(=O)c1ccc(C(F)(F)F)nc1` [Example 146, N-(2-(3-(Dimethylamino)propoxy)-5-(3′-methyl-2′-oxo-2′,3′-dihydrospiro [cyclobulane-1,1′-pyrrolo[2,3-c]quinolin]-8′-yl)pyridin-3-yl)-6-(trifluoromethyl)pyridine-3-sulfonamide hydrochloride], in that order: 7.00 to 9.00 and 7.00 to 9.00.
For `CN1C(=O)C2(CCC2)c2c1cnc1ccc(-c3cnc(N4CCC(N5CCCCC5)CC4)c(NS(=O)(=O)c4ccc(F)cc4F)c3)cc21` [Example 206, N-(2-([1,4′-Bipiperidin]-1′-yl)-5-(3′-methyl-2′-oxo-2′,3′-dihydrospiro[cyclobutane-1,1′-pyrrolo[2,3-c]quinolin]-8′-yl)pyridin-3-yl)-2,4-difluorobenzenesulfonamide hydrochloride], in that order: 7.00 to 9.00 and greater than 9.30.
For `CN1C(=O)C2(CCC2)c2c1cnc1ccc(-c3cnc(OCCCN4CCCC(O)C4)c(NS(C)(=O)=O)c3)cc21` (stereo not drawn) [Example 270, N-(2-(3-(3-Hydroxypiperidin-1-yl)propoxy)-5-(3′-methyl-2′-oxo-2′,3′-dihydrospiro[cyclobutane-1,1′-pyrrolo[2,3-c]quinolin]-8′-yl)pyridin-3-yl)methanesulfonamide] the same measures were 7.00 to 9.00 and 7.00 to 9.00.
As to `CC(C)NCCOc1ncc(-c2cc3c(cc2F)ncc2c3[C@]3(C[C@@H](c4cccc(F)c4)C3)C(=O)N2C)cc1NS(C)(=O)=O` [Example 425, trans-N-(5-(7′-Fluoro-3-(3-fluorophenyl)-3′-methyl-2′-oxo-2′,3′-dihydrospiro[cyclobutane-1,1′-pyrrolo[2,3-c]quinolin]-8′-yl)-2-(2-(isopropylamino)ethoxy)pyridin-3-yl)methanesulfonamide], the results for the pIC50 against ATM (setting [2]) and against DNA-PK (20 μM ATP) were less than 7.00 and 7.00 to 9.00, respectively.
Regarding `CN(C)CCCOc1c(F)cc(-c2ccc3ncc4c(c3c2)C2(CC2)C(=O)N4C)cc1NS(=O)(=O)c1ccccc1` [Example 97, N-(2-(3-(Dimethylamino)propoxy)-3-fluoro-5-(3′-methyl-2′-oxo-2′,3′-dihydrospiro[cyclopropane-1,1′-pyrrolo[2,3-c]quinolin]-8′-yl)phenyl)benzenesulfonamide], the pIC50 on ATM (setting [1]) and at DNA-PK (ATP 20 μM) was 7.00 to 9.00 in each case.
In the case of `CN(C)CCCOc1ncc(-c2cc3c4c(cnc3cc2F)N(C)C(=O)C42CCC2)cc1NS(C)(=O)=O` [Example 291, N-(2-(3-(Dimethylamino)propoxy)-5-(7′-fluoro-3′-methyl-2′-oxo-2′,3′-dihydrospiro [cyclobutane-1,1′-pyrrolo[2,3-c]quinolin]-8′-yl)pyridin-3-yl)methanesulfonamide hydrochloride], the pIC50 at ATM (setting [1]) and on DNA-PK (ATP 20 μM) was 7.00 to 9.00 each time.
Consider `CO[C@H]1C[C@@]2(C1)C(=O)N(C)c1cnc3ccc(-c4cnc(OCCNC(C)C)c(NS(C)(=O)=O)c4)cc3c12` [Example 384, trans-N-(2-(2-(Isopropylamino)ethoxy)-5-(3-methoxy-3′-methyl-2′-oxo-2,3′-dihydrospiro[cyclobutane-1,1′-pyrrolo[2,3-c]quinolin]-8′-yl)pyridin-3-yl)methanesulfonamide hydrochloride], for which the negative logarithm of the IC50 (pIC50) against ATM (setting [2]) was 7.00 to 9.00; on DNA-PK (20 μM ATP) it was greater than 9.30.
On to `CN(C)CCCOc1ncc(-c2ccc3ncc4c(c3c2)C2(CC2)C(=O)N4C)cc1NS(=O)(=O)c1ccccc1OC(F)(F)F` [Example 116], for which the pIC50 at ATM (setting [1]) and at DNA-PK (ATP 20 μM) was 9.00 to 9.30 in each case.
As to `CN1C(=O)C2(CCC2)c2c1cnc1ccc(-c3cnc(OCCCN4CCCCC4)c(NS(=O)(=O)N4CCNCC4)c3)cc21` [Example 202, N-(5-(3′-Methyl-2′-oxo-2′,3′-dihydrospiro[cyclobutane-1,1′-pyrrolo[2,3-c]quinolin]-8′-yl)-2-(3-(piperidin-1-yl)propoxy)pyridin-3-yl)piperazine-1-sulfonamide], the pIC50 was 9.00 to 9.30 against ATM (setting [1]) and greater than 9.30 at DNA-PK (ATP 20 μM).
For `CN1C(=O)C2(CCC2)c2c1cnc1ccc(-c3cnc(OCCCN4CCCCC4)c(NS(=O)(=O)c4cncs4)c3)cc21` [Example 199, N-(5-(3′-Methyl-2′-oxo-2′,3′-dihydrospiro[cyclobutane-1,1′-pyrrolo[2,3-c]quinolin]-8′-yl)-2-(3-(piperidin-1-yl)propoxy)pyridin-3-yl)thiazole-5-sulfonamide hydrochloride], in that order: 7.00 to 9.00 and greater than 9.30.
For `CN1C(=O)C2(CC2)c2c1cnc1ccc(-c3cnc(OCCCN4CCCCC4)c(NS(=O)(=O)C4CC4)c3)cc21` [Example 68, N-(5-(3′-Methyl-2′-oxo-2′,3′-dibydrospiro[cyclopropane-1,1′-pyrrolo[2,3-c]quinolin]-8′-yl)-2-(3-(piperidin-1-yl)propoxy)pyridin-3-yl)cyclopropanesulfonamide] the same measures were 7.00 to 9.00 and greater than 9.30.
For `CN(C)CCCOc1ncc(-c2ccc3c(c2)c2c(c[n+]3[O-])N(C)C(=O)C23CC3)cc1NS(=O)(=O)c1ccccc1` [Example 123, 8′-(6-(3-(Dimethylamino)propoxy)-5-(phenylsulfonamido)pyridin-3-yl)-3′-methyl-2′-oxo-2′,3′-dihydrospiro[cyclopropane-1,1′-pyrrolo[2,3-c]quinoline]5′-oxide], in that order: 7.00 to 9.00 and 7.00 to 9.00.
Take `CN1C(=O)C2(CC2)c2c1cnc1cc(F)c(-c3cnc(OCCCN4CCCC4)c(NS(=O)(=O)c4ccccc4)c3)cc21` [Example 124, N-(5-(7′-Fluoro-3′-methyl-2′-oxo-2′,3′-dihydrospiro[cyclopropane-1,1′-pyrrolo[2,3-c]quinolin]-8′-yl)-2-(3-(pyrrolidin-1-yl)propoxy)pyridin-3-yl)benzenesulfonamide]: the pIC50 on ATM (setting [1]) and against DNA-PK (ATP 20 μM) was 7.00 to 9.00 throughout.
Regarding `COCc1ccc(N2CC3(C2)C(=O)N(C)c2cnc4cc(F)c(-c5cnc(OCCNC(C)C)c(NS(C)(=O)=O)c5)cc4c23)cc1` [Example 532, N-(5-(7′-Fluoro-1-(4-(methoxymethyl)phenyl)-3′-methyl-2′-oxo-2′,3′-dihydrospiro[azetidine-3,1′-pyrrolo[2,3-c]quinolin]-8′-yl)-2-(2-(isopropylamino)ethoxy)pyridin-3-yl)methanesulfonamide], the pIC50 is 7.00 to 9.00 against ATM (setting [2]) and greater than 9.30 on DNA-PK (20 μM ATP).
For `Cc1cccc(N2CC3(C2)C(=O)N(C)c2cnc4cc(F)c(-c5cnc(OCCNC(C)C)c(NS(C)(=O)=O)c5)cc4c23)c1` [Example 527, N-(5-(7′-Fluoro-3′-methyl-2′-oxo-1-(m-tolyl)-2′,3′-dihydrospiro[azetidine-3,1′-pyrrolo[2,3-c]quinolin]-8′-yl)-2-(2-(isopropylamino)ethoxy)pyridin-3-yl)methanesulfonamide], in that order: 7.00 to 9.00 and 7.00 to 9.00.
`CN1C(=O)C2(CCC2)c2c1cnc1ccc(-c3cnc(N4CC(N(C)C)C4)c(NS(=O)(=O)N(C)C)c3)cc21` [Example 288, 8′-(6-[3-(Dimethylamino)azetidin-1-yl]-5-[(dimethylsulfamoyl)amino]pyridin-3-yl}-3′-methyl-2′,3′-dihydrospiro [cyclobutane-1,1′-pyrrolo[2,3-c]quinoline]-2′-one]: the pIC50 against ATM (setting [1]) was 7.00 to 9.00; against DNA-PK (ATP 20 μM) it was 9.00 to 9.30.
For `CN(C)CCCOc1ncc(-c2ccc3ncc4c(c3c2)C2(CCC2)C(=O)N4C)cc1NS(=O)(=O)c1cc(Cl)cc(C(F)(F)F)c1` [Example 154, 3-Chloro-N-(2-(3-(dimethylamino)propoxy)-5-(3′-methyl-2′-oxo-2′,3′-dihydrospiro[cyclobutane-1,1′-pyrrolo[2,3-c]quinolin]-8′-yl)pyridin-3-yl)-5-(trifluoromethyl)benzenesulfonamide hydrochloride] the same measures were 7.00 to 9.00 and 7.00 to 9.00.
With `CC(C)NCCOc1ncc(-c2cc3c(cc2F)ncc2c3[C@]3(C[C@H](COc4ccccc4)C3)C(=O)N2C)cc1NS(C)(=O)=O` [Example 409, cis-N-(5-(7′-Fluoro-3′-methyl-2′-oxo-3-(phenoxymethyl)-2′,3′-dihydrospiro[cyclobutane-1,1′-pyrrolo[2,3-c]quinolin]-8′-yl)-2-(2-(isopropylamino)ethoxy)pyridin-3-yl)methanesulfonamide], the pIC50 on ATM (setting [2]) was 7.00 to 9.00; on DNA-PK (20 μM ATP), greater than 9.30.
As to `CN(C)CCCOc1ncc(-c2cc3c4c(cnc3cc2F)N(C)C(=O)C42CCC2)cc1NS(=O)(=O)N(C)C` [Example 290, 8′-{6-[3-(Dimethylamino)propoxy]-5-[(dimethylsulfamoyl)amino]pyridin-3-yl}-7′-fluoro-3′-methyl-2′,3′-dihydrospiro[cyclobutane-1,1′-pyrrolo[2,3-c]quinoline]-2′-one hydrochloride], the negative logarithm of the IC50 (pIC50) was 7.00 to 9.00 on ATM (setting [1]) and 9.00 to 9.30 on DNA-PK (ATP 20 μM).
`CC(C)NCCOc1ncc(-c2cc3c4c(cnc3cc2F)N(C)C(=O)C42CN(c3ccccc3F)C2)cc1NS(C)(=O)=O` [Example 540, N-(5-(7′-Fluoro-1-(2-fluorophenyl)-3′-methyl-2′-oxo-2′,3′-dihydrospiro [azetidine-3,1′-pyrrolo[2,3-c]quinolin]-8′-yl)-2-(2-(isopropylamino)ethoxy)pyridin-3-yl)methanesulfonamide]: the pIC50 against ATM (setting [2]) is 7.00 to 9.00; on DNA-PK (20 μM ATP) it was greater than 9.30.

Source of the values: US12187742B2 (XRAD Therapeutics, Inc., priority 2018, dated 2025).
